Numbers after ± are expanded uncertainties.
Key:
[1] = 101.33 kPa, Liquid; for speed of sound: Pulse-echo method
[2] = xn = mol fraction of the nth substance listed; settings: 101 kPa, Liquid

CNc1ccccc1 [N-methylaniline]
[1]
Settings	mass density [kg/m3]	speed of sound [m/s]
293.15 K	986.077 ± 0.93	1582.3 ± 2.1
298.15 K	982.066 ± 0.93	1564.4 ± 2.1
303.15 K	978.011 ± 0.93	1545.5 ± 2.1

CNc1ccccc1 [N-methylaniline] + CC(C)=O
[2]
Settings	mass density [kg/m3]
293.15 K, x2 = 0.0565	979.562 ± 0.86
293.15 K, x2 = 0.1032	973.934 ± 0.81
293.15 K, x2 = 0.1494	968.145 ± 0.77
293.15 K, x2 = 0.1916	962.605 ± 0.73
293.15 K, x2 = 0.251	954.413 ± 0.68
293.15 K, x2 = 0.2952	948.053 ± 0.64
293.15 K, x2 = 0.3555	938.912 ± 0.6
293.15 K, x2 = 0.4039	931.04 ± 0.57
293.15 K, x2 = 0.4478	923.576 ± 0.54
293.15 K, x2 = 0.4981	914.659 ± 0.52
293.15 K, x2 = 0.5489	905.091 ± 0.5
293.15 K, x2 = 0.5965	895.722 ± 0.48
293.15 K, x2 = 0.6485	884.852 ± 0.47
293.15 K, x2 = 0.7018	873.046 ± 0.46
293.15 K, x2 = 0.7472	862.27 ± 0.46
293.15 K, x2 = 0.802	848.69 ± 0.45
293.15 K, x2 = 0.8563	834.277 ± 0.46
293.15 K, x2 = 0.9053	820.343 ± 0.46
293.15 K, x2 = 0.9548	805.391 ± 0.47
298.15 K, x2 = 0.044	977.005 ± 0.88
298.15 K, x2 = 0.0984	970.455 ± 0.82
298.15 K, x2 = 0.1447	964.607 ± 0.77
298.15 K, x2 = 0.1996	957.353 ± 0.72
298.15 K, x2 = 0.2503	950.29 ± 0.68
298.15 K, x2 = 0.2919	944.327 ± 0.65
298.15 K, x2 = 0.3511	935.283 ± 0.6
298.15 K, x2 = 0.3924	928.532 ± 0.58
298.15 K, x2 = 0.452	918.415 ± 0.55
298.15 K, x2 = 0.4948	910.794 ± 0.53
298.15 K, x2 = 0.5563	899.086 ± 0.5
298.15 K, x2 = 0.6004	890.231 ± 0.49
298.15 K, x2 = 0.6473	880.387 ± 0.48
298.15 K, x2 = 0.6962	869.434 ± 0.47
298.15 K, x2 = 0.7506	856.501 ± 0.46
298.15 K, x2 = 0.8009	843.758 ± 0.46
298.15 K, x2 = 0.8518	830.205 ± 0.46
298.15 K, x2 = 0.8986	816.915 ± 0.47
298.15 K, x2 = 0.9488	801.799 ± 0.48
303.15 K, x2 = 0.0461	972.638 ± 0.88
303.15 K, x2 = 0.0934	966.889 ± 0.83
303.15 K, x2 = 0.1524	959.343 ± 0.77
303.15 K, x2 = 0.1937	953.815 ± 0.73
303.15 K, x2 = 0.2442	946.596 ± 0.69
303.15 K, x2 = 0.3357	933.026 ± 0.62
303.15 K, x2 = 0.3991	922.737 ± 0.58
303.15 K, x2 = 0.4904	906.677 ± 0.53
303.15 K, x2 = 0.5507	895.228 ± 0.51
303.15 K, x2 = 0.5949	886.274 ± 0.49
303.15 K, x2 = 0.6467	875.21 ± 0.48
303.15 K, x2 = 0.6928	864.807 ± 0.47
303.15 K, x2 = 0.7424	852.961 ± 0.47
303.15 K, x2 = 0.7993	838.524 ± 0.47
303.15 K, x2 = 0.8469	825.646 ± 0.47
303.15 K, x2 = 0.8977	811.117 ± 0.48
303.15 K, x2 = 0.9484	795.598 ± 0.49

CC(C)=O [acetone]
[1]
Settings	mass density [kg/m3]	speed of sound [m/s]
293.15 K	790.694 ± 0.49	1182.8 ± 0.8
298.15 K	785.32 ± 0.5	1160.7 ± 0.8
303.15 K	778.812 ± 0.51	1138.7 ± 0.8

Nc1ccccc1 [aniline]
[1]
Settings	mass density [kg/m3]	speed of sound [m/s]
293.15 K	1021.7 ± 0.21	1657 ± 0.9
298.15 K	1017.41 ± 0.2	1638.6 ± 0.9
303.15 K	1013.04 ± 0.2	1619.2 ± 0.9

Nc1ccccc1 [aniline] + CC(C)=O
[2]
Settings	mass density [kg/m3]
293.15 K, x2 = 0.0522	1013.71 ± 0.2
293.15 K, x2 = 0.1078	1004.97 ± 0.18
293.15 K, x2 = 0.1567	996.941 ± 0.18
293.15 K, x2 = 0.2074	988.429 ± 0.19
293.15 K, x2 = 0.249	981.269 ± 0.2
293.15 K, x2 = 0.3016	971.707 ± 0.22
293.15 K, x2 = 0.3454	963.326 ± 0.23
293.15 K, x2 = 0.3832	955.799 ± 0.24
293.15 K, x2 = 0.4313	946.013 ± 0.26
293.15 K, x2 = 0.4908	933.416 ± 0.28
293.15 K, x2 = 0.5497	920.272 ± 0.29
293.15 K, x2 = 0.583	912.529 ± 0.31
293.15 K, x2 = 0.6446	897.535 ± 0.33
293.15 K, x2 = 0.6911	885.684 ± 0.35
293.15 K, x2 = 0.7465	870.629 ± 0.37
293.15 K, x2 = 0.8046	854.022 ± 0.39
293.15 K, x2 = 0.8497	840.545 ± 0.41
293.15 K, x2 = 0.9045	823.238 ± 0.44
293.15 K, x2 = 0.9475	809.118 ± 0.46
298.15 K, x2 = 0.0569	1008.67 ± 0.19
298.15 K, x2 = 0.1088	1000.44 ± 0.18
298.15 K, x2 = 0.1539	993.118 ± 0.19
298.15 K, x2 = 0.1978	985.694 ± 0.2
298.15 K, x2 = 0.2484	976.895 ± 0.21
298.15 K, x2 = 0.3039	966.77 ± 0.23
298.15 K, x2 = 0.3505	957.976 ± 0.24
298.15 K, x2 = 0.4114	945.773 ± 0.26
298.15 K, x2 = 0.4585	935.933 ± 0.27
298.15 K, x2 = 0.5035	926.122 ± 0.29
298.15 K, x2 = 0.5501	915.531 ± 0.3
298.15 K, x2 = 0.5922	905.703 ± 0.32
298.15 K, x2 = 0.6499	891.425 ± 0.34
298.15 K, x2 = 0.6993	878.643 ± 0.36
298.15 K, x2 = 0.7522	864.125 ± 0.38
298.15 K, x2 = 0.8082	848.052 ± 0.4
298.15 K, x2 = 0.8533	834.272 ± 0.42
298.15 K, x2 = 0.8951	821.048 ± 0.44
298.15 K, x2 = 0.9545	801.258 ± 0.47
303.15 K, x2 = 0.0515	1005.02 ± 0.18
303.15 K, x2 = 0.1002	997.272 ± 0.18
303.15 K, x2 = 0.1475	989.506 ± 0.19
303.15 K, x2 = 0.1926	981.799 ± 0.2
303.15 K, x2 = 0.2399	973.527 ± 0.22
303.15 K, x2 = 0.3024	962.003 ± 0.23
303.15 K, x2 = 0.3475	953.088 ± 0.25
303.15 K, x2 = 0.3947	943.989 ± 0.26
303.15 K, x2 = 0.4503	932.55 ± 0.28
303.15 K, x2 = 0.4979	922.075 ± 0.29
303.15 K, x2 = 0.5502	910.191 ± 0.31
303.15 K, x2 = 0.6037	897.422 ± 0.33
303.15 K, x2 = 0.6464	886.697 ± 0.34
303.15 K, x2 = 0.6975	873.362 ± 0.36
303.15 K, x2 = 0.7548	857.721 ± 0.39
303.15 K, x2 = 0.8078	842.147 ± 0.41
303.15 K, x2 = 0.8567	827.148 ± 0.43
303.15 K, x2 = 0.9014	812.779 ± 0.46
303.15 K, x2 = 0.9494	796.575 ± 0.48

c1ccncc1 [pyridine]
[1]
Settings	mass density [kg/m3]	speed of sound [m/s]
293.15 K	983.053 ± 0.2	1436.7 ± 0.9
298.15 K	978.05 ± 0.21	1416.7 ± 0.9
303.15 K	972.98 ± 0.21	1396.6 ± 0.9

c1ccncc1 [pyridine] + CC(C)=O
[2]
Settings	mass density [kg/m3]
293.15 K, x2 = 0.0577	973.393 ± 0.22
293.15 K, x2 = 0.1007	966.028 ± 0.23
293.15 K, x2 = 0.1536	956.946 ± 0.24
293.15 K, x2 = 0.2043	948.163 ± 0.25
293.15 K, x2 = 0.2219	945.011 ± 0.26
293.15 K, x2 = 0.2968	931.713 ± 0.28
293.15 K, x2 = 0.3537	921.354 ± 0.29
293.15 K, x2 = 0.4051	911.899 ± 0.3
293.15 K, x2 = 0.5191	890.383 ± 0.34
293.15 K, x2 = 0.5519	884.082 ± 0.35
293.15 K, x2 = 0.5969	875.296 ± 0.36
293.15 K, x2 = 0.6425	866.297 ± 0.37
293.15 K, x2 = 0.703	854.168 ± 0.39
293.15 K, x2 = 0.7504	844.514 ± 0.41
293.15 K, x2 = 0.8066	832.904 ± 0.42
293.15 K, x2 = 0.8569	822.218 ± 0.44
293.15 K, x2 = 0.9019	812.518 ± 0.45
293.15 K, x2 = 0.9456	803.006 ± 0.47
298.15 K, x2 = 0.0514	969.365 ± 0.22
298.15 K, x2 = 0.0969	961.623 ± 0.23
298.15 K, x2 = 0.1486	952.705 ± 0.25
298.15 K, x2 = 0.2023	943.375 ± 0.26
298.15 K, x2 = 0.2444	935.93 ± 0.27
298.15 K, x2 = 0.296	926.692 ± 0.28
298.15 K, x2 = 0.3544	916.021 ± 0.3
298.15 K, x2 = 0.3965	908.33 ± 0.31
298.15 K, x2 = 0.4516	898.006 ± 0.33
298.15 K, x2 = 0.5036	888.119 ± 0.34
298.15 K, x2 = 0.594	870.616 ± 0.37
298.15 K, x2 = 0.6454	860.492 ± 0.38
298.15 K, x2 = 0.6971	850.007 ± 0.4
298.15 K, x2 = 0.7518	838.783 ± 0.41
298.15 K, x2 = 0.8049	827.707 ± 0.43
298.15 K, x2 = 0.8456	819.096 ± 0.44
298.15 K, x2 = 0.8955	808.385 ± 0.46
298.15 K, x2 = 0.9456	797.415 ± 0.47
303.15 K, x2 = 0.0493	964.637 ± 0.23
303.15 K, x2 = 0.0954	956.714 ± 0.24
303.15 K, x2 = 0.1463	947.874 ± 0.25
303.15 K, x2 = 0.1983	938.736 ± 0.27
303.15 K, x2 = 0.2424	930.863 ± 0.28
303.15 K, x2 = 0.2929	921.779 ± 0.29
303.15 K, x2 = 0.3522	910.875 ± 0.31
303.15 K, x2 = 0.4048	901.126 ± 0.32
303.15 K, x2 = 0.4497	892.629 ± 0.33
303.15 K, x2 = 0.497	883.593 ± 0.35
303.15 K, x2 = 0.5412	875.069 ± 0.36
303.15 K, x2 = 0.5965	864.243 ± 0.38
303.15 K, x2 = 0.6594	851.677 ± 0.39
303.15 K, x2 = 0.6912	845.142 ± 0.4
303.15 K, x2 = 0.7491	833.115 ± 0.42
303.15 K, x2 = 0.8475	812.305 ± 0.45
303.15 K, x2 = 0.8946	802.071 ± 0.47
303.15 K, x2 = 0.9443	791.125 ± 0.48

Source: the NIST ThermoML archive (doi:10.1021/je900874z)
